Activity calls are given as the source filed them. The calls are words filed in the database; no cut-off is given here.
Assays:
[1] = target: Aurora kinase A (Homo sapiens) (UniProt O14965); experiment: Inhibition of Aurora A kinase (unknown origin) at 10 uM by Z'-LYTE kinase assay
[2] = target: Glycogen synthase kinase-3 beta (Homo sapiens) (UniProt P49841); experiment: Inhibition of GSK3 beta (unknown origin) at 10 uM by Z'-LYTE kinase assay
[3] = Cytotoxicity against human Hep3B cells after 72 hrs by CCK-8 assay; type: functional, cell-based, Hep 3B2
Aurora kinase B [4] = target: T1, Aurora kinase B (Homo sapiens, UniProt Q96GD4); experiment: Inhibition of Aurora B kinase phosphorylation in human SW620 cells after 48 hrs by Western blotting analysis; type: cell-based; settings: SW-620
SW-620 [5] = experiment: Growth inhibition in human SW620 cells at 5 to 10 uM incubated for 96 hrs followed by compound washout measured after 48 hrs by CCK-8 assay; type: functional, cell-based
Aurora kinase B [6] = target: T1, Aurora kinase B; experiment: Inhibition of Aurora B kinase phosphorylation in human HeLa cells after 48 hrs by Western blotting analysis; type: cell-based
[7] = target: RAC-alpha serine/threonine-protein kinase (Homo sapiens) (UniProt P31749); experiment: Inhibition of AKT1 (unknown origin) at 10 uM by Z'-LYTE kinase assay
HCT-116 = experiment: Cytotoxicity against human HCT116 cells after 72 hrs by CCK-8 assay; type: functional, cell-based; settings: HCT-116, 72 h
[8] = target: Tyrosine-protein kinase receptor UFO (Homo sapiens) (UniProt P30530); experiment: Inhibition of AXL (unknown origin) at 10 uM by Z'-LYTE kinase assay
SW-620 [9] = experiment: Growth inhibition in human SW620 cells at 5 to 10 uM after 96 hrs by CCK-8 assay relative to control; type: functional, cell-based
[10] = target: Proto-oncogene tyrosine-protein kinase receptor Ret (Homo sapiens) (UniProt P07949); experiment: Inhibition of RET (unknown origin) at 10 uM by Z'-LYTE kinase assay
SW-620 [11] = experiment: Cytotoxicity against human SW620 cells at 20 uM incubated for 96 hrs measured after 10 days by colony formation assay relative to control; type: functional
[12] = target: RAF proto-oncogene serine/threonine-protein kinase (Homo sapiens) (UniProt P04049); experiment: Inhibition of c-Raf (unknown origin) at 10 uM by Z'-LYTE kinase assay
SK-OV-3 = experiment: Cytotoxicity against human SKOV3 cells after 72 hrs by CCK-8 assay; type: functional, cell-based; settings: SK-OV-3, 72 h
CNE = experiment: Cytotoxicity against human CNE cells after 72 hrs by CCK-8 assay; type: functional, cell-based
[13] = target: Serine/threonine-protein kinase PLK1 (Homo sapiens) (UniProt P53350); experiment: Inhibition of PLK1 (unknown origin) at 10 uM by Z'-LYTE kinase assay
[14] = Cytotoxicity against human PANC cells after 72 hrs by CCK-8 assay; type: functional, cell-based
[15] = target: Platelet-derived growth factor receptor beta (Homo sapiens) (UniProt P09619); experiment: Inhibition of PDGFR beta (unknown origin) at 10 uM by Z'-LYTE kinase assay
Aurora kinase B [16] = target: T1, Aurora kinase B; experiment: Inhibition of Aurora B kinase in human HepG2 cells assessed as inhibition of Histone H3 phosphorylation after 48 hrs by Western blotting analysis; type: cell-based
[17] = target: High affinity nerve growth factor receptor (Homo sapiens) (UniProt P04629); experiment: Inhibition of TRKA (unknown origin) at 10 uM by Z'-LYTE kinase assay
MCF7 = experiment: Cytotoxicity against human MCF7 cells after 72 hrs by CCK-8 assay; type: functional, cell-based; settings: MCF7, 72 h
Aurora kinase B [18] = target: T1, Aurora kinase B; experiment: Inhibition of Aurora B kinase in human HeLa cells assessed as inhibition of Histone H3 phosphorylation after 48 hrs by immuno-fluorescence analysis relative to control; type: cell-based
PC-3 = experiment: Cytotoxicity against human PC3 cells after 72 hrs by CCK-8 assay; type: functional, cell-based; settings: PC-3, 72 h
MDA-MB-231 = experiment: Cytotoxicity against human MDA-MB-231 cells after 72 hrs by CCK-8 assay; type: functional, cell-based; settings: MDA-MB-231, 72 h
Aurora kinase B [19] = target: T1, Aurora kinase B; experiment: Inhibition of recombinant Aurora B kinase (unknown origin) expressed in Escherichia coli
A-375 = experiment: Cytotoxicity against human A375 cells after 72 hrs by CCK-8 assay; type: functional, cell-based; settings: A-375, 72 h
[20] = target: 5'-AMP-activated protein kinase catalytic subunit alpha-2 (Homo sapiens) (UniProt P54646); experiment: Inhibition of AMPK (unknown origin) at 10 uM by Z'-LYTE kinase assay
[21] = target: Epidermal growth factor receptor (Homo sapiens) (UniProt P00533); experiment: Inhibition of EGFR (unknown origin) at 10 uM by Z'-LYTE kinase assay
Aurora kinase B [22] = target: T1, Aurora kinase B; experiment: Inhibition of Aurora B kinase in human SW620 cells assessed as inhibition of Histone H3 phosphorylation after 48 hrs by Western blotting analysis; type: cell-based; settings: SW-620
Aurora kinase B [23] = target: T1, Aurora kinase B; experiment: Inhibition of Aurora B kinase in human HeLa cells assessed as inhibition of Histone H3 phosphorylation after 48 hrs by Western blotting analysis; type: cell-based
SW-620 [24] = experiment: Induction of apoptosis in human SW620 cells assessed as late apoptotic cells at 5 uM after 48 hrs by Annexin-V staining-based flow cytometry (reference value: 4.52 %); type: functional
SW-620 [25] = experiment: Cytotoxicity against human SW620 cells at 10 uM incubated for 96 hrs measured after 10 days by colony formation assay relative to control; type: functional
SW-620 [26] = experiment: Induction of apoptosis in human SW620 cells assessed as late apoptotic cells at 10 uM after 48 hrs by Annexin-V staining-based flow cytometry (reference value: 4.52 %); type: functional
Aurora kinase B [27] = target: T1, Aurora kinase B; experiment: Inhibition of Aurora B kinase phosphorylation in human HepG2 cells after 48 hrs by Western blotting analysis; type: cell-based
HGC-27 = experiment: Cytotoxicity against human HGC27 cells after 72 hrs by CCK-8 assay; type: functional, cell-based; settings: HGC-27, 72 h
SW-620 [28] = experiment: Cytotoxicity against human SW620 cells after 72 hrs by CCK-8 assay; type: functional, cell-based; settings: SW-620, 72 h
HeLa = experiment: Cytotoxicity against human HeLa cells after 72 hrs by CCK-8 assay; type: functional, cell-based
[29] = target: Vascular endothelial growth factor receptor 2 (Homo sapiens) (UniProt P35968); experiment: Inhibition of VEGFR2 (unknown origin) at 10 uM by Z'-LYTE kinase assay
Aurora kinase B [30] = target: T1, Aurora kinase B; experiment: Competitive inhibition of recombinant Aurora B kinase (unknown origin) expressed in Escherichia coli by Z'-LYTE kinase assay in presence of ATP
[31] = target: CDK2/Cyclin A2 (Homo sapiens) (UniProt P24941+P20248); experiment: Inhibition of CDK2/CycA (unknown origin) at 10 uM by Z'-LYTE kinase assay; type: protein-complex assay
SW-620 [32] = experiment: Induction of apoptosis in human SW620 cells assessed as late apoptotic cells at 20 uM after 48 hrs by Annexin-V staining-based flow cytometry (reference value: 4.52 %); type: functional
SW-620 [33] = experiment: Growth inhibition in human SW620 cells assessed as cell death at 10 uM incubated for 96 hrs measured after 8 days by CCK-8 assay; type: functional, cell-based
Homo sapiens = species: Homo sapiens; experiment: Inhibition of PKA (unknown origin) at 10 uM by Z'-LYTE kinase assay
HepG2 = experiment: Cytotoxicity against human HepG2 cells after 72 hrs by CCK-8 assay; type: functional, cell-based; settings: HepG2, 72 h
A549 = experiment: Cytotoxicity against human A549 cells after 72 hrs by CCK-8 assay; type: functional, cell-based; settings: A549, 72 h
SW-620 [34] = experiment: Induction of apoptosis in human SW620 cells assessed as late apoptotic cells after 48 hrs by Annexin-V staining-based flow cytometry; type: functional, cell-based
SK-HEP1 = experiment: Cytotoxicity against human SKHEP1 cells after 72 hrs by CCK-8 assay; type: functional, cell-based; settings: SK-HEP1, 72 h
Aurora kinase B [35] = target: T1, Aurora kinase B; experiment: Inhibition of Aurora B kinase (unknown origin) at 10 uM by Z'-LYTE kinase assay

T1 sequence (Q96GD4 whole entry): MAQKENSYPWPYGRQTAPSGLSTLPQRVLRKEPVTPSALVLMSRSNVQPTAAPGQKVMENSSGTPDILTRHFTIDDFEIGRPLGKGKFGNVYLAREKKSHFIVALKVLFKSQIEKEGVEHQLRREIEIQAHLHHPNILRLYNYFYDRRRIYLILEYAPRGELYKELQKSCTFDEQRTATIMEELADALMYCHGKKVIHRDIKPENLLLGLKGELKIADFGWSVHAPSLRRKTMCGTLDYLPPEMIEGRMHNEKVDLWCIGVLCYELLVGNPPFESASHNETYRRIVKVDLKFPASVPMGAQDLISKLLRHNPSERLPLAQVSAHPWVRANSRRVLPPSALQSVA
Sequence of 5'-AMP-activated protein kinase catalytic subunit alpha-2 (Homo sapiens) (P54646 whole entry, looked up): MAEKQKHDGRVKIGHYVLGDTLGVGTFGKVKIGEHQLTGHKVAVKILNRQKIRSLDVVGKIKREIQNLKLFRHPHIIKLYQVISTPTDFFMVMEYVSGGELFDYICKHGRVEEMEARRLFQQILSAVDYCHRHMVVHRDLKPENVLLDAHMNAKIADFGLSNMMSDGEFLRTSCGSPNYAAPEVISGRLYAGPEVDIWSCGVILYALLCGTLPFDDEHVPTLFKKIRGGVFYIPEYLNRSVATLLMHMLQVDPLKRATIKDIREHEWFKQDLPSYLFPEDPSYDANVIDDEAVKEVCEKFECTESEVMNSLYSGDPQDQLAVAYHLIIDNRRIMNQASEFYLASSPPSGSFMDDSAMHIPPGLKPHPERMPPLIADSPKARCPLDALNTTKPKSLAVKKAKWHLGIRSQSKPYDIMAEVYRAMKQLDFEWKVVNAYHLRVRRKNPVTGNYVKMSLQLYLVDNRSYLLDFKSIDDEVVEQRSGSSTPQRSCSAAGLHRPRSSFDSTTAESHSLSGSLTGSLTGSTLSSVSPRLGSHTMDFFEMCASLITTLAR
Sequence of Vascular endothelial growth factor receptor 2 (Homo sapiens) (P35968 whole entry): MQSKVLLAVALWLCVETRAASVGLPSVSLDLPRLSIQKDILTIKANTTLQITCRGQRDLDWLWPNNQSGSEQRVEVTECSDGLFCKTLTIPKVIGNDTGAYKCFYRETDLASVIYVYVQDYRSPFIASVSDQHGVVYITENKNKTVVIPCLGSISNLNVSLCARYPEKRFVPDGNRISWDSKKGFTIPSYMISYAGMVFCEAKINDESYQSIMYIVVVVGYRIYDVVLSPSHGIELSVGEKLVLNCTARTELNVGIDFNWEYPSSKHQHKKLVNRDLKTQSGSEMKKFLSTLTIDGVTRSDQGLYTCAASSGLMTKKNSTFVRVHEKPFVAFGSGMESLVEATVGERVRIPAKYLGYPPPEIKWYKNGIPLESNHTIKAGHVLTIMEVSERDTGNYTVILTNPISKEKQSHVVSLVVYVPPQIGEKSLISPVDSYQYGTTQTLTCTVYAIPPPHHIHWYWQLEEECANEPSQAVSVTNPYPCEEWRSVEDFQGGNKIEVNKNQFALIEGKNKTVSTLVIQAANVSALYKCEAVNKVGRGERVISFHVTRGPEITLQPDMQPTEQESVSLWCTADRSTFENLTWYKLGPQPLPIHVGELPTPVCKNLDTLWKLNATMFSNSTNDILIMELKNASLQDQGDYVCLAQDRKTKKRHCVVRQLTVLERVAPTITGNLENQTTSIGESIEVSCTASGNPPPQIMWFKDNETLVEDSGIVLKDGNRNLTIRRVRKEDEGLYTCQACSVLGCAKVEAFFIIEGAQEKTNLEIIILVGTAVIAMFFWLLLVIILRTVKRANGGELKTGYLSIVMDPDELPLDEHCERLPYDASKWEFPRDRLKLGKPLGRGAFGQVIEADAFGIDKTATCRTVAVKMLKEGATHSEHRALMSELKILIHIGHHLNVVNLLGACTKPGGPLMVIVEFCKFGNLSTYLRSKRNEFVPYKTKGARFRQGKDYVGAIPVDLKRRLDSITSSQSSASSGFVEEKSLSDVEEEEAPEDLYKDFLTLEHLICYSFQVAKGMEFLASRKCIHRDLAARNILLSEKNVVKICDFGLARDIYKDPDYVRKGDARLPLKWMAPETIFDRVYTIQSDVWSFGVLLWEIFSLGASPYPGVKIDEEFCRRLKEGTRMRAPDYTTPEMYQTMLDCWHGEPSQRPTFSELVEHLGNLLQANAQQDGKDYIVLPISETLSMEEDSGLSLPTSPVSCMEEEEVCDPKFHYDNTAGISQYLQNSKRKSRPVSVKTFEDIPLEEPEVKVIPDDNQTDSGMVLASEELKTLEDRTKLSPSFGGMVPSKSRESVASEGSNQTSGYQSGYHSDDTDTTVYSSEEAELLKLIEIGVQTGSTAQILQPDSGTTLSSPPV
Sequence of Epidermal growth factor receptor (Homo sapiens) (P00533 whole entry): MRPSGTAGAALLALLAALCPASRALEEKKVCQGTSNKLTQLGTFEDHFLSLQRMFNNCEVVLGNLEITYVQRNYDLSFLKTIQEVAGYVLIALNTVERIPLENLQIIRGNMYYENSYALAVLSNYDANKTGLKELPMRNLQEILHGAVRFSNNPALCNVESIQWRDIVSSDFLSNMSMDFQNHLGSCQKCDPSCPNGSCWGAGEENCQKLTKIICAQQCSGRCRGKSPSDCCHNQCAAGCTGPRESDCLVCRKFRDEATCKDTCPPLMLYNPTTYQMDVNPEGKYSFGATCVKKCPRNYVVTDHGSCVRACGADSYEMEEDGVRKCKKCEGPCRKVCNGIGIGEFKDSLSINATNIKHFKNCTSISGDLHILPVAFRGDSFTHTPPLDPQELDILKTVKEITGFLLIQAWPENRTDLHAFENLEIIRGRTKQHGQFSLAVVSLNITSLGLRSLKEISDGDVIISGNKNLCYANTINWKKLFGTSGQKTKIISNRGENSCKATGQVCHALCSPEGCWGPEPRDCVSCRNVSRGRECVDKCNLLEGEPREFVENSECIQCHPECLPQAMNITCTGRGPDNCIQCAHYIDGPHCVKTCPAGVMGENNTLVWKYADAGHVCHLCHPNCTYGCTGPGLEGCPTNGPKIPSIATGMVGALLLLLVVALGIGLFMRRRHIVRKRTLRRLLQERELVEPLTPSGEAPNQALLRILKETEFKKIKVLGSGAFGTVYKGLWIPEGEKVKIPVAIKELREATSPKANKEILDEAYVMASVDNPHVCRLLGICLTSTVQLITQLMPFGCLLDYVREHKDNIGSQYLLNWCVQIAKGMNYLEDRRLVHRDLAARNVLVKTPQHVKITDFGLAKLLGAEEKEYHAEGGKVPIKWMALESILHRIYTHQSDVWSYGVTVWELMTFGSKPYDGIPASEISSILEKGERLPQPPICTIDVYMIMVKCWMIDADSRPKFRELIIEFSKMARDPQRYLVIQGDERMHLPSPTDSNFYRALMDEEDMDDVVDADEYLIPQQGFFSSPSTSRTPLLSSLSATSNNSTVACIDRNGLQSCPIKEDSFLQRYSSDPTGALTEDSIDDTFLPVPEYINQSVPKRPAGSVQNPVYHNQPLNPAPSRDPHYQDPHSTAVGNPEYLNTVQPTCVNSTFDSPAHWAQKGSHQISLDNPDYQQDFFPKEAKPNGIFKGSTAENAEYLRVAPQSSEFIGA
Sequence of Proto-oncogene tyrosine-protein kinase receptor Ret (Homo sapiens) (P07949 whole entry): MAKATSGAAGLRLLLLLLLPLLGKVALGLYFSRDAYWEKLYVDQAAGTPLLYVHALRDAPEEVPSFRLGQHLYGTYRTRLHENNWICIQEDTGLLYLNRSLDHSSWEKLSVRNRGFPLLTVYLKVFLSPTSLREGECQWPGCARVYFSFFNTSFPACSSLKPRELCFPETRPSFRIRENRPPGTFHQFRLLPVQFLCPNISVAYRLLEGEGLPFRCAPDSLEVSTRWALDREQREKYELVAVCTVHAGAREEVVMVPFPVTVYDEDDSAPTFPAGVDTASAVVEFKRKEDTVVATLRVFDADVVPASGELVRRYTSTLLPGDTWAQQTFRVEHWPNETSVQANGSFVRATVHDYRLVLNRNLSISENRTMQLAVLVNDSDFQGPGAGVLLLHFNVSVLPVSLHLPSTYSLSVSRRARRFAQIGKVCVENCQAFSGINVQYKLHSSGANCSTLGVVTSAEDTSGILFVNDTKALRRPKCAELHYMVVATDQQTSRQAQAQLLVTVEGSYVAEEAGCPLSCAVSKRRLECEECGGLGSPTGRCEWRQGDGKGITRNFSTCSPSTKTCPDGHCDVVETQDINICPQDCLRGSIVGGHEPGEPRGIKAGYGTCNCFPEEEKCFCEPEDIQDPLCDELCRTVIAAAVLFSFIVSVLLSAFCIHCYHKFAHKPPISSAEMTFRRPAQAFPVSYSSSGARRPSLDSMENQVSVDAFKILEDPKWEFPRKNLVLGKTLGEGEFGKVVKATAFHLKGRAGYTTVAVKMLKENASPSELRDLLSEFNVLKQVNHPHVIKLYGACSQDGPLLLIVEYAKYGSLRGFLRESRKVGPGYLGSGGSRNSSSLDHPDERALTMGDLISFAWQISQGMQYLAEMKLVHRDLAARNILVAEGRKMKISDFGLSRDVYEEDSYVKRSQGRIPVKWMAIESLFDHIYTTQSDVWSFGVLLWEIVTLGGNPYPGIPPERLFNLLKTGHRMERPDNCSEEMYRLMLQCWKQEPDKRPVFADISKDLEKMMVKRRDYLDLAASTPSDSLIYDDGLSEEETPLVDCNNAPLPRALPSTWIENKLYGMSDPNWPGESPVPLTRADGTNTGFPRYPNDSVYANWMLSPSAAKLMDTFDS
Sequence of Aurora kinase A (Homo sapiens) (O14965 whole entry): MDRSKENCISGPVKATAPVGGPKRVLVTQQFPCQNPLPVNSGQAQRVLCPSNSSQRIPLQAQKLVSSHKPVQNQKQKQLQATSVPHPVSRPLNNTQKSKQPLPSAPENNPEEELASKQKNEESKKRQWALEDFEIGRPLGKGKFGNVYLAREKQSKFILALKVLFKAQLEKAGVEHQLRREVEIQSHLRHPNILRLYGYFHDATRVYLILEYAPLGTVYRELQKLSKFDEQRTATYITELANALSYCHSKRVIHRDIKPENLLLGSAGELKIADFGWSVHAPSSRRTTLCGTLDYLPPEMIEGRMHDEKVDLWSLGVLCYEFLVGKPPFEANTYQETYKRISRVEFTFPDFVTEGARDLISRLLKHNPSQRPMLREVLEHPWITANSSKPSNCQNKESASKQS

In the case of `c1ccc(-c2csc3ncnc(N4CCc5ccccc5C4)c23)cc1`, the inhibition [1] is reported as 65.3%, the inhibition [2] is reported as 13% and the IC50 [3] is reported as greater than 100 µM. For the same compound, the inhibition (Aurora kinase B [4]) was “Dose-dependent effect”, the “growth inhibition (GI)” value (SW-620 [5]) was “inactive” and the inhibition (Aurora kinase B [6]) was “Dose-dependent effect”. It also gave an inhibition [7] of 5.32%, an IC50 (HCT-116) greater than 100 µM and an inhibition [8] of 2.58%. For the same compound, the “growth inhibition (GI)” value (SW-620 [9]) was “Active”, the inhibition [10] was 1.86% and the Activity (SW-620 [11]) was 13.2%. It also gave an inhibition [12] of 1.42%, an IC50 (SK-OV-3) of 20.6 µM and an IC50 (CNE) greater than 100 µM. It also gave an inhibition [13] of 6.5%, an IC50 [14] of 42.3 µM and an inhibition [15] of 9.63%. The inhibition (Aurora kinase B [16]) was “Active”, the inhibition [17] was 4.18% and the IC50 (MCF7) was 27 µM. The inhibition (Aurora kinase B [18]) was “Active”, the IC50 (PC-3) was 13.2 µM and the IC50 (MDA-MB-231) was greater than 100 µM. For the same compound, the IC50 (Aurora kinase B [19]) was 0.141 µM, the IC50 (A-375) was 15.2 µM and the inhibition [20] was 3.37%. For the same compound, the inhibition [21] was 1.69%, the inhibition (Aurora kinase B [22]) was “Active” and the inhibition (Aurora kinase B [23]) was “Active”. It also gave an Activity (SW-620 [24]) of 9.34%, an Activity (SW-620 [25]) of 33.6% and an Activity (SW-620 [26]) of 24.09%. The inhibition (Aurora kinase B [27]) was “Dose-dependent effect”, the IC50 (HGC-27) was 17.4 µM and the IC50 (SW-620 [28]) was 6.25 µM. For the same compound, the IC50 (HeLa) was 20.8 µM, the inhibition [29] was 3.02% and the inhibition (Aurora kinase B [30]) was “Active”. The inhibition [31] was 27.7%, the Activity (SW-620 [32]) was 35.39% and the “growth inhibition (GI)” value (SW-620 [33]) was “Active”. For the same compound, the inhibition (Homo sapiens) was 1.77%, the IC50 (HepG2) was 23.4 µM and the IC50 (A549) was greater than 100 µM. For the same compound, the Activity (SW-620 [34]) was “Dose-dependent effect”, the IC50 (SK-HEP1) was greater than 100 µM and the inhibition (Aurora kinase B [35]) was 74.4%.

Reference: ChEMBL document CHEMBL2401630, “A thienopyrimidine derivative induces growth inhibition and apoptosis in human cancer cell lines via inhibiting Aurora B kinase activity” (Eur J Med Chem, 2013)
